Our source for the MIC values is US4755610A, “Hapalindoles” (priority 1986, dated 1988).

≈ marks a conversion by molar mass, not a printed value. Like-named read-outs stand apart in the source and are kept apart here. Some results are limits rather than exact numbers.

What all share (type): cell-based
The subject of one experiment is Escherichia coli EC14. The experiment is described as follows: In vitro antibacterial activity, standard agar-dilution assay.
Experiment [1] has as its system Klebsiella pneumoniae X26. The description is as above.
Experiment [2] has as its system Staphylococcus aureus S13E. In words: microbe, parasite or virus in culture.
In experiment [3] the test system is Acinetobacter calcoaceticus AC12. The experiment is described as follows: In vitro antibacterial activity, standard agar-dilution assay.
For the next experiment, the system named is Escherichia coli N10. Described as above.
In experiment [4] the test system is Streptococcus faecium ATCC 9790. Described as above. Particulars: Enterococcus faecium, ATCC9790.
Experiment [5] has as its system Klebsiella pneumoniae X68. The description is as above.
For experiment [6], the system named is Staphylococcus aureus X400. In words: microbe, parasite or virus in culture.
Experiment [7] relates to Staphylococcus epidermidis 222. In words: In vitro antibacterial activity, standard agar-dilution assay.
Experiment [8] deals with Streptococcus pneumoniae Park 1. The experiment is described as above. Particulars: PARK1.
The next experiment has as its system Shigella sonnei N9. Described as above.
For experiment [9], the system named is Haemophilus influenzae C.L. The experiment is described as above.
Experiment [10] relates to Staphylococcus aureus X1.1. Described as above.
In experiment [11] the test system is Staphylococcus aureus V41. The experiment is described as above.
The subject of experiment [12] is Streptococcus sp group D 2041. The experiment is described as above. Particulars: GROUPD2041.
Experiment [13] has as its system Staphylococcus epidermidis EPI1. The description is as above.
In a further experiment the test system is Proteus morganii PR15. The description is as above. Particulars: Morganella morganii.
A further experiment relates to Escherichia coli TEM. Described as above.
Experiment [14] concerns Trichophyton mentagrophytes. In words: In vitro antifungal activity, standard disc-plate assay.
Experiment [15] deals with Haemophilus influenzae 76. In words: In vitro antibacterial activity, standard agar-dilution assay.
For a further experiment, the system named is Candida albicans. In words: In vitro antifungal activity, standard disc-plate assay.
Experiment [16] deals with Streptococcus pyogenes C203. The experiment is described as follows: In vitro antibacterial activity, standard agar-dilution assay.
The test system of the next experiment is Salmonella sp. X514. The description is as above.
In experiment [17] the test system is Klebsiella pneumoniae KAE. Described as above.
Setting [18] is: Escherichia coli EC14, agar dilution, read-out: MIC.
Setting [19] is: Klebsiella pneumoniae X26, agar dilution, read-out: MIC.
Where [20] appears, read: Acinetobacter calcoaceticus AC12, agar dilution, read-out: MIC.
Where [21] appears, read: Escherichia coli N10, agar dilution, read-out: MIC.
Where [22] appears, read: Streptococcus faecium ATCC 9790, agar dilution, read-out: MIC.
Where [23] appears, read: Klebsiella pneumoniae X68, agar dilution, read-out: MIC.
The mark [24] stands for this setting: Staphylococcus epidermidis 222, agar dilution, read-out: MIC.
The mark [25] stands for this setting: Streptococcus pneumoniae Park 1, agar dilution, read-out: MIC.
The mark [26] stands for this setting: Shigella sonnei N9, agar dilution, read-out: MIC.
Setting [27] is: Haemophilus influenzae C.L., agar dilution, read-out: MIC.
The mark [28] stands for this setting: Staphylococcus aureus X1.1, agar dilution, read-out: MIC.
Setting [29] is: Staphylococcus aureus V41, agar dilution, read-out: MIC.
[30] abbreviates: Streptococcus sp group D 2041, agar dilution, read-out: MIC.
[31] abbreviates: Staphylococcus epidermidis EPI1, agar dilution, read-out: MIC.
Where [32] appears, read: Proteus morganii PR15, agar dilution, read-out: MIC.
[33] abbreviates: disc-plate assay, read-out: MIC.
The mark [34] stands for this setting: Haemophilus influenzae 76, agar dilution, read-out: MIC.
Setting [35] is: Streptococcus pyogenes C203, agar dilution, read-out: MIC.
The mark [36] stands for this setting: Salmonella sp. X514, agar dilution, read-out: MIC.
Where [37] appears, read: Klebsiella pneumoniae KAE, agar dilution, read-out: MIC.

Consider `[C-]#[N+][C@@H]1[C@H](c2c[nH]c3ccccc23)[C@@H](C(=C)C)C[C@@H](Cl)[C@]1(C)C=C` [Compound 5, Hapalindole E], for which the MIC was 16 µg/mL (≈ 47.2 µM) against Escherichia coli EC14 (Escherichia coli, EC14); over 64 µg/mL in [1] (Klebsiella pneumoniae, X26); 2 µg/mL (≈ 5.9 µM) in [2]; over 64 µg/mL in experiment [3] (Acinetobacter calcoaceticus, AC12); 16 µg/mL (≈ 47.2 µM) in the experiment on Escherichia coli N10 (Escherichia coli, N10); 64 µg/mL (≈ 189 µM) in experiment [4]. Further, the MIC in experiment [5] (Klebsiella pneumoniae, X68) was over 64 µg/mL; in [6] it was 4 µg/mL (≈ 11.8 µM); in experiment [7] (Staphylococcus epidermidis, 222), 2 µg/mL (≈ 5.9 µM); in [8] (Streptococcus pneumoniae), over 64 µg/mL; in the experiment with Shigella sonnei N9 (Shigella sonnei, N9), over 64 µg/mL; in experiment [9] (Haemophilus influenzae), 4 µg/mL (≈ 11.8 µM). Further, the MIC in experiment [10] (Staphylococcus aureus, X1.1) is 4 µg/mL (≈ 11.8 µM); in experiment [11] (Staphylococcus aureus, V41) it was 2 µg/mL (≈ 5.9 µM); in [12] (Streptococcus) it was over 64 µg/mL; in experiment [13] (Staphylococcus epidermidis, EPI1) it was 2 µg/mL (≈ 5.9 µM); in the experiment on Proteus morganii PR15 (PR15), 32 µg/mL (≈ 94.4 µM); against Escherichia coli TEM it was over 64 µg/mL. Also, the MIC in experiment [14] is 0.625 µg/mL (≈ 1.84 µM); in experiment [15] (Haemophilus influenzae, 76), 4 µg/mL (≈ 11.8 µM); against Candida albicans it was 0.312 µg/mL (≈ 0.921 µM); in experiment [16] (Streptococcus pyogenes, C203), over 64 µg/mL; with Salmonella sp. X514 (Salmonella, SP.X514), over 64 µg/mL; in experiment [17] (Klebsiella pneumoniae), over 64 µg/mL.

In the case of `[C-]#[N+][C@@H]1[C@H](c2c[nH]c3ccccc23)[C@@H](C(=C)C)CC[C@]1(C)C=C` [Compound 3, Hapalindole C], the MIC was over 64 µg/mL in the experiment on Escherichia coli EC14 (setting [18]); over 64 µg/mL in experiment [1] (setting [19]); 8 µg/mL (≈ 26.3 µM) in experiment [2]; 2 µg/mL (≈ 6.57 µM) in experiment [3] (setting [20]); over 64 µg/mL in the experiment on Escherichia coli N10 (setting [21]); over 64 µg/mL in [4] (setting [22]). For the same compound, the MIC is over 64 µg/mL in experiment [5] (setting [23]); 16 µg/mL (≈ 52.6 µM) in experiment [6]; 16 µg/mL (≈ 52.6 µM) in experiment [7] (setting [24]); over 64 µg/mL in experiment [8] (setting [25]); over 64 µg/mL in the experiment with Shigella sonnei N9 (setting [26]); 16 µg/mL (≈ 52.6 µM) in [9] (setting [27]). In addition, the MIC in experiment [10] (setting [28]) is 16 µg/mL (≈ 52.6 µM); in experiment [11] (setting [29]), 16 µg/mL (≈ 52.6 µM); in experiment [12] (setting [30]), over 64 µg/mL; in experiment [13] (setting [31]), 8 µg/mL (≈ 26.3 µM); in the experiment with Proteus morganii PR15 (setting [32]), over 64 µg/mL; in the experiment on Escherichia coli TEM, 64 µg/mL (≈ 210 µM). Moreover, the MIC in experiment [14] (setting [33]) was 0.625 µg/mL (≈ 2.05 µM); in [15] (setting [34]) it was 16 µg/mL (≈ 52.6 µM); in the experiment with Candida albicans (setting [33]), 0.625 µg/mL (≈ 2.05 µM); in [16] (setting [35]) it was over 64 µg/mL; in the experiment with Salmonella sp. X514 (setting [36]) it was over 64 µg/mL; in [17] (setting [37]), over 64 µg/mL.

As to `C=C[C@@]1(C)[C@H](Cl)C[C@H](C(=C)C)[C@@H](c2c[nH]c3ccccc23)[C@H]1N=C=S` [Compound 6, Hapalindole F], the MIC is over 64 µg/mL with Escherichia coli EC14 (setting [18]); over 64 µg/mL in experiment [1] (setting [19]); 32 µg/mL (≈ 86.3 µM) in experiment [2]; over 64 µg/mL in experiment [3] (setting [20]); over 64 µg/mL with Escherichia coli N10 (setting [21]); 64 µg/mL (≈ 173 µM) in [4] (setting [22]). Also, the MIC in experiment [5] (setting [23]) was over 64 µg/mL; in experiment [6] it was 32 µg/mL (≈ 86.3 µM); in experiment [7] (setting [24]), 4 µg/mL (≈ 10.8 µM); in [8] (setting [25]), over 64 µg/mL; in the experiment with Shigella sonnei N9 (setting [26]), over 64 µg/mL; in experiment [9] (setting [27]), over 64 µg/mL. For the same compound, the MIC in experiment [10] (setting [28]) is 16 µg/mL (≈ 43.1 µM); in [11] (setting [29]) it was over 64 µg/mL; in experiment [12] (setting [30]) it was 16 µg/mL (≈ 43.1 µM); in experiment [13] (setting [31]) it was 4 µg/mL (≈ 10.8 µM); in the experiment on Proteus morganii PR15 (setting [32]) it was over 64 µg/mL; against Escherichia coli TEM, over 64 µg/mL. Further, the MIC is over 20 µg/mL in experiment [14] (setting [33]); over 64 µg/mL in experiment [15] (setting [34]); over 20 µg/mL with Candida albicans (setting [33]); over 64 µg/mL in [16] (setting [35]); over 64 µg/mL in the experiment with Salmonella sp. X514 (setting [36]); over 64 µg/mL in experiment [17] (setting [37]).
